Measured values from US20240300881A1, “PROCESS FOR PREPARATION OF LITHIUM L-THREONATE AND USE THEREOF” (XIXIOXOME BIOTHERAPEUTICS, priority 2023, published 2024).

Tests used:
schizoaffective disorder = conditions: cited from earlier work
[1] = stability in high thermal condition
[2] = precipitation of lithium hydroxide from solution at different pH; assay type: physicochemical
Excerpt: L-threonic acid was selected as the ligand for lithium ion, because L-threonic acid can accelerate the absorption of the ion.

AAD = conditions: low-dose; cited from earlier work

NC(=O)N1c2ccccc2C=Cc2ccccc21 [carbamazepine]
prophylactic efficacy in maintenance treatment (schizoaffective disorder): equipotent alternatives

O=C([O-])[C@H](O)[C@@H](O)CO.[Li+] [lithium L-threonate]
temperature of decomposition [1]: > 300 °C
dissolution in alcohol and ether (alcohol and ether): no dissolution in alcohol and ether
dissolution in water (water): dissolution in water
precipitate of lithium hydroxide ([2]; basic condition): no precipitate of lithium hydroxide
precipitate of lithium hydroxide ([2]; small intestine (pH˜7)): no precipitate of lithium hydroxide

O=C([O-])[O-].[Li+].[Li+] [lithium carbonate]
efficacy in treating agitation (AAD): not efficacious
global clinical improvement (AAD): associated with global clinical improvement
